Laboratory results: PMC3688948, “Distinctive G Protein-Dependent Signaling by Protease-Activated Receptor 2 (PAR2) in Smooth Muscle: Feedback Inhibition of RhoA by cAMP-Independent PKA” (PLoS ONE, 2013)
Read-outs that look alike come from different tables or passages of the source. Peptide text beside a SMILES is read from it. * marks the point of attachment. Myristoyl = CCCCCCCCCCCCCC(=O)*; Cbz = O=C(OCc1ccccc1)*

Tests used:
[1] = test system: dispersed gastric smooth muscle cells; details: for contraction (decrease in cell length), comparator agonists: other contractile agonists, concentration not given; for effect of inhibitor on sustained (10 min) contraction by PAR2-AP: inhibitor 10 min (U73122 10 µM, ML-9 10 µM, bisindolylmaleimide 1 µM, Y27632 1 µM), then PAR2-AP 1 µM 10 min
[2] = test system: Rho kinase; experiment: Rho kinase activity (immunokinase assay), PAR2-AP-stimulated or basal; type: cell-based, rabbit; details: for basal Rho kinase activity with inhibitor alone / effect of inhibitor on PAR2-AP-induced Rho kinase activity: IKK IV 10 µM; for basal Rho kinase activity with inhibitor alone: MG-132 10 µM or myristoylated PKI 1 µM alone, basal 3125±502 cpm/mg protein, n = four; for effect of inhibitor on PAR2-AP-induced Rho kinase activity: MG-132 10 µM or myristoylated PKI 1 µM, PAR2-AP 1 µM 10 min, freshly dispersed cells, P<0.01
[3] = biological target: T1, PAR2 (Oryctolagus cuniculus, UniProt G1SHU9); type: cell-based, rabbit
T1 construct: Freshly dispersed muscle cells labelled with myo-2-[^3H]inositol were incubated with different concentrations of PAR2-AP for 60 s; endogenous in cells; host or cells: freshly dispersed and primary cultured rabbit gastric smooth muscle cells
T1 sequence (G1SHU9 25-397): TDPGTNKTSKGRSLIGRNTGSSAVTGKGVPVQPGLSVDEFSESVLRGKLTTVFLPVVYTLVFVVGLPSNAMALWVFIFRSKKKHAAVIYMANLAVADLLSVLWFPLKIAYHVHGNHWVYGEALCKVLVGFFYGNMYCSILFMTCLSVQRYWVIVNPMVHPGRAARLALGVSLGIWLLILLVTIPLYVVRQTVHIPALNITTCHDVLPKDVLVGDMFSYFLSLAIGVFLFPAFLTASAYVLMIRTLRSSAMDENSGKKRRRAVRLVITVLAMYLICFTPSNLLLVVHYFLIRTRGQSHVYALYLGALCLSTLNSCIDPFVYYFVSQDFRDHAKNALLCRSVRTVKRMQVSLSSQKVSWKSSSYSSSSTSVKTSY

[4] = test system: adenylyl cyclase; experiment: Forskolin-stimulated cAMP formation (adenylyl cyclase activity); type: cell-based, rabbit; details: forskolin 10 µM, 10 min, 100 µM isobutyl methyl xanthine; basal 2.8±0.5 pmol/mg protein; n = 4
Method: Adenylyl cyclase activity was measured by the formation of cAMP in response to agonists by radioimmunoassay using [^125I]cAMP [18], [21]. One ml (3×10^6 cells/ml) of cell suspension was treated for 60 s with forskolin (10 µM) in the presence of 100 µM isobutylmethyl xanthine, either alone or in combination with PAR2-AP (1 µM). The reaction was terminated with cold 6% trichloroacetic acid (v/v) and vortexed vigorously. After centrifugation, the supernatants were extracted three times with water-saturated diethyl ether to remove the tricholoroacetic acid and the samples were then lyophilized and frozen at –20°C. The samples were reconstituted for radioimmunoassay in 50 µl of 50 mM sodium acetate (pH 6.2) and acetylated with triethylamine/acetic anhydride (2∶1 v/v) for 30 min. […] The results are expressed as pmol of cAMP/mg protein.
Cyclic AMP formation was measured in freshly dispersed muscle cells in the presence of 100 µM isobutylmethylxanthine. Muscle cells were treated with PAR2-AP (1 µM) alone, forskolin (FSK, 10 µM) alone or forskolin plus PAR2-AP (1 µM) for 60 s and cAMP was measured by radioimmunoassay. In some experiments cells were treated with pertussis toxin (PTx, 200 ng/ml) for 60 min, and then treated with forskolin (10 µM) and PAR2-AP (1 µM) for 60 s. Results are expressed as pmol/mg protein.

[5] = biological target: T1, PAR2; experiment: PAR2 expression (western blot); type: cell-based, rabbit; details: transfection with PAR2-specific siRNA for 48 h, cultured cells
[6] = test system: NF-kB/PKA catalytic subunit complex; experiment: Association of PKA catalytic subunit with NF-kB (co-immunoprecipitation); type: cell-based, rabbit; details: cells transfected with PAR2-specific siRNA, PAR2-AP 10 min
[7] = biological target: Protease-activated receptor 2 (PAR2) (rabbit (endogenous in gastric smooth muscle cells))
[8] = inhibitor 10 min (U73122 10 µM, ML-9 10 µM, bisindolylmaleimide 1 µM, Y27632 1 µM) or PTx 200 ng/ml 60 min, then PAR2-AP 1 µM 30 s

Molecule: NCCc1c[nH]c2ccc(O)cc12 [5-hydroxytryptamine]
- contraction (decrease in cell length), comparator agonists [1]: 30±4%

Molecule: NC(=O)Nc1sc(-c2ccc(F)cc2)cc1C(N)=O [IKK IV]
- basal Rho kinase activity with inhibitor alone ([2]; no effect): 3021±486 cpm/mg protein
- effect of inhibitor on PAR2-AP-induced Rho kinase activity [2]: significantly augmented

Molecule: CC(C)C[C@@H](C=O)NC(=O)[C@H](CC(C)C)NC(=O)[C@H](CC(C)C)NC(=O)OCc1ccccc1 [MG-132] (Cbz-Leu-Leu-Leu-aldehyde)
- basal Rho kinase activity with inhibitor alone ([2]; no effect): 2859±602 cpm/mg protein
- effect of inhibitor on PAR2-AP-induced Rho kinase activity [2]: significantly augmented

Molecule: O=S(=O)(c1cccc2c(Cl)cccc12)N1CCCNCC1 [ML-9]
- effect of inhibitor on initial (30 s) contraction by PAR2-AP [1, 8]: abolished
- effect of inhibitor on sustained (10 min) contraction by PAR2-AP [1]: not

Molecule: COc1ccc2c(c1)CC[C@@H]1[C@@H]2CC[C@]2(C)[C@@H](NCCCCCCN3C(=O)C=CC3=O)CC[C@@H]12 [U73122]
- inhibition of PAR2-AP-stimulated PI hydrolysis by U73122 ([3]; U73122 10 µM 10 min, then PAR2-AP 1 µM 60 s, freshly dispersed cells): abolished
- PI hydrolysis with inhibitor alone ([3]; no PAR2-AP, U73122 10 µM 10 min or PTx 200 ng/ml 60 min, basal 520±66 cpm/mg protein, no effect on basal): 485±86 cpm/mg protein
- effect of inhibitor on initial (30 s) contraction by PAR2-AP [1, 8]: abolished
- effect of inhibitor on sustained (10 min) contraction by PAR2-AP [1]: not

Molecule: C[C@@H](N)[C@H]1CC[C@H](C(=O)Nc2ccncc2)CC1 [Y27632]
- basal Rho kinase activity with Y27632 alone ([2]; Y27632 1 µM alone, basal 3363±587 cpm/mg protein, no effect): 3025±425 cpm/mg protein
- effect of inhibitor on initial (30 s) contraction by PAR2-AP [1, 8]: not affected
- effect of inhibitor on sustained (10 min) contraction by PAR2-AP [1]: preferentially blocked

Molecule: CC(=O)OCC[N+](C)(C)C [acetylcholine]
- contraction (decrease in cell length), comparator agonists [1]: 31±3%

Molecule: C=C[C@@]1(C)CC(=O)[C@]2(O)[C@@]3(C)[C@@H](O)CCC(C)(C)[C@@H]3[C@H](O)[C@H](OC(C)=O)[C@@]2(C)O1 [forskolin]
- cAMP formation above basal level [4]: 22.1±1.86 pmol/mg protein

Molecule: PAR2 siRNA: PAR-2 (ID#s453494): sense: 5′ CCUCCUCUCUGUCAUCUGGTT 3′, antisense: 5′ CCAGAUGACAGAGAGGAGGTC3′ (chemistry not given here)
- inhibition of PAR2-AP-stimulated PI hydrolysis by PAR2 siRNA ([3]; cultured cells transfected with PAR2 siRNA, PAR2-AP 1 µM 60 s, p<0.001, n = four): 83±6%
- expression of PAR2 [5]: greatly suppressed the expression of PAR2
- effect of PAR2 siRNA on PAR2-AP-induced NF-kB and PKA catalytic subunit dissociation [6]: blocked

Molecule: bisindolylmaleimide
- effect of inhibitor on initial (30 s) contraction by PAR2-AP [1]: not affected
- effect of inhibitor on sustained (10 min) contraction by PAR2-AP [1]: not

Molecule: cholecystokinin
- contraction (decrease in cell length), comparator agonists [1]: 29±2%

Molecule: myristoylated PKI: membrane-permeable specific PKA inhibitory peptide, myristoylated PKI 14-22 amide (Myristoyl-SGRTGRRNA-NH2; SMILES CCCCCCCCCCCCCC(=O)N[C@@H](CO)C(=O)NCC(=O)N[C@@H](CCCNC(=N)N)C(=O)N[C@H](C(=O)NCC(=O)N[C@@H](CCCNC(=N)N)C(=O)N[C@@H](CCCNC(=N)N)C(=O)N[C@@H](CC(N)=O)C(=O)N[C@@H](C)C(N)=O)[C@@H](C)O; UniProt P61925 14-22, looked up, fragment)
- basal Rho kinase activity with inhibitor alone ([2]; no effect): 3254±574 cpm/mg protein
- effect of inhibitor on PAR2-AP-induced Rho kinase activity [2]: significantly augmented

Molecule: trypsin
- PI hydrolysis above basal levels, trypsin ([3]; trypsin 1 µM, basal 439±68 cpm/mg protein): 2653±302 cpm/mg protein

B1: PAR2-activating peptide (PAR2-AP, SLIGRL) (peptide)
peptide: SLIGRL
- stimulation of PI hydrolysis in freshly dispersed rabbit gastric smooth muscle cells, concentration-dependent (EC50) [7]: 2 nM
